Measurements as given in patent publication US20040023884A1, “Biologically active peptides from functional domains of bactericidal/permeability-increasing protein and uses thereof” (priority 1993, published 2004).
Entries after “also recorded” stand apart in the source; their conditions may differ. Ends that are not written are not given here.

Key:
[1] = system: rough mutant E. coli J5 bacteria; test: Radial diffusion bactericidal assay, E. coli J5; assay type: cell-based; settings: for pmol added to well to achieve a 30 mm^2 bactericidal zone, E. coli J5 / bactericidal activity (in words): radial diffusion; for pmol added to well to achieve a 30 mm^2 bactericidal zone, E. coli J5: PROBIT analysis, E. coli J5 (rough); for bactericidal activity (in words): E. coli J5
In short: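 Wells received 5 or 10 μL of BPI fragment, pre-incubated 3 h at 37 °C. The underlayer agarose carried washed log-phase organisms at 4×10^6 CFU/mL.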

[2] = 3H-heparin binding assay (affinity and capacity); settings: for Heparin Capacity: heparin bound at saturation; for Kd: read-out: Heparin Affinity
In short: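 Peptide fragments were bound to PVDF-membrane wells and incubated with 3H-heparin in blocking buffer for 1 h at 4 °C. After washing, bound radioactivity was quantified by liquid scintillation counting, with BSA background subtracted; rBPI23 served as positive control.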

[3] = system: E. coli 0111:B4 (smooth) bacteria; test: Radial diffusion bactericidal assay, E. coli 0111:B4; assay type: cell-based; settings: radial diffusion; for bactericidal activity (in words): E. coli 0111:B4; for pmol added to well to achieve a 30 mm^2 bactericidal zone, E. coli O111:B4: PROBIT analysis, E. coli O111:B4 (smooth)
Staphylococcus aureus = test: Radial diffusion bactericidal assay, Staphylococcus aureus; assay type: cell-based; settings: for pmol added to well to achieve a 30 mm^2 bactericidal zone, S. aureus: radial diffusion, PROBIT analysis; for bactericidal activity (in words): FIG. 10e
[4] = Lipid A binding competition with [125I]-rLBP; settings: for IC50: read-out: IC50 (inhibition of Lipid A binding of radiolabeled rLBP)
Experimental: A second binding assay was developed, wherein radiolabeled recombinant LPS binding protein ([^125I]-rLBP) was used instead of radiolabeled rBPI23 in competition experiments with BPI functional domain peptides BPI.2, BPI.3, BPI.4, BPI.5, BPI.7, BPI.13, BPI.14, BPI.29, BPI.30 and BPI.48, rBPI, rBPI21Δcys, and rLBP25 were included in these assays as controls. In these experiments, Lipid A was adsorbed to the wells at a concentration of 0.7 μg/mL in methanol. Incubation of radiolabeled rLBP (a total of 650,000 cpm and a specific activity of 3.45 μCi/μg) was performed for 2.5 hr at 37° C. in the presence of BPI peptides in a series of increasing concentrations. IC50 values (i.e., the concentration at which Lipid A binding of radiolabeled rLBP25 is inhibited to one half the value achieved in the absence of the peptide) are shown in accompanying Table XI.

RAW 264.7 cells = test: LPS neutralization cellular proliferation assay, RAW 264.7 cells; assay type: cell-based, mouse
In short: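 Mouse RAW 264.7 cells were primed 24 h with 50U/mL mouse γ-interferon, then exposed about 15 h to E. coli O113 LPS in serum-free RPMI with or without BPI peptides at 25 ng/mL–50 μg/mL. Proliferation was quantified by [^3H]-thymidine uptake, 1 μCi/well, added at 5 h.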

C. albicans = test: Radial diffusion fungicidal assay, Candida albicans; assay type: cell-based; settings: radial diffusion

Row | Substance | pmol added to well to achieve a 30 mm^2 bactericidal zone, E. coli J5 [1] | heparin binding activity (in words) [2] | heparin binding capacity (in words) [2] | Heparin Capacity [2] [ng] | Kd [2] [nM] | bactericidal activity (in words) [3] | pmol added to well to achieve a 30 mm^2 bactericidal zone, E. coli O111:B4 [3] | pmol added to well to achieve a 30 mm^2 bactericidal zone, S. aureus (Staphylococcus aureus) | IC50 (inhibition of Lipid A binding of radiolabeled rLBP) [4] [µg/mL] | IC50 [4] [nM] | IC50 (peptide concentration at which RAW cell growth was inhibited by 50%) (RAW 264.7 cells) | concentration above which appreciable bactericidal activity was shown [1] | bactericidal activity (in words) (Staphylococcus aureus) | C. albicans: pmol required for 30 mm^2 zone (C. albicans) [pmol] | EC50 (peptide concentration at which the growth inhibitory effect of LPS was reversed by 50%) (RAW 264.7 cells) [µg/mL] | bactericidal activity (in words) [1]
1 | IKISGKWKAQKRFLK [BPI.2] | 3,001.50 pmol | little or no heparin binding activity | low heparin binding capacity | 203.6 | 346 | exhibited bactericidal activity | b (no detectable activity up to 5 μg/well) | b (no detectable activity up to 5 μg/well) | 2.36 | 1300 | — (No proliferation decrease up to 50 μg/ml) | – | – | – | – | –
2 | KSKVGWLIQLFHKK-NH2 (C-terminus assumed) [BPI.13] | 440.80 pmol | – | – | 369.1 | 984 | – | 5,857.40 pmol | 5,341.27 pmol | 1.7 | 1000 | – | greater than 30 μg/mL | low levels of activity | 221.63 | 1.9 ± 0.4 | –
3 | KSKVGWLIQLFHKKKSKVGWLIQLFHKK-NH2 (C-terminus assumed) [BPI.29] | 441.60 pmol | – | extremely high heparin capacity | 463.7 | 427 | – | – | 15,508.98 pmol | 0.44 | 130 | 13.6 ± 0.4 µg/mL | – | moderate levels of activity | >1469.25 | 0.1 ± 0.02 | greater bactericidal activity; also recorded: highly bactericidal
4 | KWKAAARFLKKWKAAARFLK [BPI.48] | 42.40 pmol | – | extremely high heparin capacity | 442.3 | 1420 | – | 253.54 pmol | 4,089.14 pmol | 0.48 | 200 | 5.0 ± 0.1 µg/mL | – | – | – | 1.3 ± 0.9 | highly bactericidal
5 | KWKAQKRFLKKSKVGWLIQLFHKK-NH2 (C-terminus assumed) [BPI.30] | 76.38 pmol | – | extremely high heparin capacity | 499.4 | 592 | – | 608.20 pmol | 1,216.37 pmol | 0.75 | 250 | 10.5 ± 1.2 µg/mL | – | highest amount of bactericidal activity | >1653.50 | 1.2 ± 1.1 | highest bactericidal activity; also recorded: highly bactericidal
6 | KWKAQKRFLKKWKAQKRFLK-NH2 (C-terminus assumed) [BPI.7] | 175.40 pmol | – | extremely high heparin binding capacity | 405.6 | 908 | exhibited bactericidal activity | 2,072.10 pmol | 3,769.60 pmol | 0.26 | 100 | – | – | low levels of activity | – | >50 | exhibited bactericidal activity; also recorded: high levels of bactericidal activity; also recorded: highly bactericidal
7 | NVGLKFSISNANIKISGKWKAQKRFLK [BPI.3] | 695.78 pmol | moderate heparin binding activity | – | 264.5 | 781 | exhibited bactericidal activity | b (no detectable activity up to 5 μg/well) | – | 0.75 | 250 | – | – | – | – | – | exhibited bactericidal activity
